The term Kd denotes the concentration at which binding is half-saturated. The low end stands for a tighter complex, the high end for a looser complex.

Consider two molecules from paper PMC4955742 (Molecular bioSystems, 2016).

Structures are written as SMILES. Where two headings read alike, the source gives them in different places.

Common to all, as to assay: intrinsic tryptophan fluorescence quenching
What all share (type): binding

Test [1] concerns the target T1, HucR-H51F (Deinococcus radiodurans, UniProt Q9RV71, H51F).
In test [2] the target is T2, HucR (hypothetical uricase regulator), HucR-WT (Deinococcus radiodurans, UniProt Q9RV71).
T2 sequence (Q9RV71 1-181): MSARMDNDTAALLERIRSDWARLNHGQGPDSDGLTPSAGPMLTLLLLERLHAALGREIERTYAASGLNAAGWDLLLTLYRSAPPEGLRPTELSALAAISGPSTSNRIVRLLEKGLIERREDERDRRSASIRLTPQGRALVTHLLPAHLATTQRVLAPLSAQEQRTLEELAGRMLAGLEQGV

For test [3], the target named is T3, HucR-E48Q (Deinococcus radiodurans, UniProt Q9RV71, E48Q).
Test [4] deals with T2, HucR (hypothetical uricase regulator), HucR-WT. This is another data set of the same source.
In test [5] the target is T1, HucR-H51F. The source holds these as a separate data set.
Test [6] deals with T3, HucR-E48Q. This is another data set of the same source.

Turning to `O=c1[nH]c(=O)c2[nH]c(=O)[nH]c2[nH]1` [urate], the Kd at HucR-H51F [1] came to 14.7 ± 1.2 µM; in test [2], 11.4 ± 2.9 µM; on HucR-E48Q [3], 2.2 ± 0.8 µM.

In the case of `O=c1[nH]c(=O)c2[nH]cnc2[nH]1` [xanthine], the Kd (in test [4]; on HucR-H51F [5]; at HucR-E48Q [6]) was around 17 µM each time.
